Source: patent publication US9539141B2, “System and method for ocular iontophoresis with buffering” (Eyegate Pharmaceuticals, Inc., priority 2008, dated 2017)

Assay: pH of aqueous solution at dosing concentration
Settings: aqueous solution at dosing concentration of 40 mg/mL

- pH of aqueous solution: 5.7
Structure (SMILES): C[C@@H]1C[C@H]2[C@@H]3CCC4=CC(=O)C=C[C@]4(C)[C@@]3(F)[C@@H](O)C[C@]2(C)[C@@]1(O)C(=O)COP(=O)(O)O [dexamethasone phosphate]
